Laboratory results reported in PubChem BioAssay AID1645848.
≈ marks a conversion by molar mass, not a printed value.

details: buffer; pH 7.4; 6.0 h; 150.0 µM

Row | Compound | solubility kinetic [µg/mL]
1 | Nc1scc2c(C(=O)O)nn(-c3ccccc3)c(=O)c12 | 23.9 (≈ 83.1 µM)
2 | Cc1ccc(S(=O)(=O)Nc2ccc(C)cc2C(=O)Nc2nc(-c3ccccc3)cs2)cc1 | < 1
3 | COc1cc(Cl)ccc1C(=O)Nc1nc(-c2ccccc2)cs1 | < 1
4 | CC(=O)N1CCc2c(sc3c2c(=O)n(-c2ccccc2Cl)c(=O)n3Cc2cccc(C)c2)C1 | 2.16 (≈ 4.5 µM)
5 | NC(=O)C1CCN(c2nc(-c3ccc4c(c3)CCO4)cs2)CC1 | > 49
6 | Fc1ccc(-c2ccc(Nc3nc(-c4ccncc4)nc4ccccc34)cc2F)c(F)c1 | < 1
7 | Cc1noc(C)c1[S+](=O)([O-])N1CCC2(CC1)CC(c1cccc(C(F)(F)F)c1)=NO2 | < 1
8 | O=S(=O)(Nc1ccc(-c2ccccc2)cc1)c1ccc(NCc2cccc(Cl)c2O)cc1 | < 1
9 | CC(C)CC(C)NC(=O)c1noc(-c2ccc[nH]c2=O)n1 (stereo not drawn) | > 43
10 | Cc1ccccc1S(=O)(=O)Nc1cnccc1C(=O)Nc1nc(-c2ccccc2)cs1 | 49.9 (≈ 111 µM)
11 | COc1ccnc(NC(=S)N2CCN(c3cc(C(F)(F)F)cc(C(F)(F)F)c3)CC2)c1 | 2.88 (≈ 6.21 µM)
12 | Clc1ccccc1-c1nc(NCc2ccc(-c3cccnc3)cc2)c2ccccc2n1 | < 1
13 | COc1ccc(NC(=O)c2ccc[nH]2)cc1S(=O)(=O)Nc1ccc(Br)cc1 | < 1
14 | CSc1nn(Cc2cccc(C)c2)c(N)c1S(=O)(=O)c1ccccc1 | < 1
15 | COc1cccc(CNc2ccc(S(=O)(=O)Nc3ccccn3)cc2)c1O | 8.36 (≈ 21.7 µM)
16 | Cc1ccc(S(=O)(=O)Nc2ccccc2C(=O)Nc2ncc(-c3ccccc3)s2)cc1 | < 1
17 | O=C(Nc1ccc(S(=O)(=O)Nc2nccs2)cc1)c1ccc(-c2ccccc2)cc1 | < 1
18 | Cc1ccc(-c2csc(Nc3ccc(S(=O)(=O)Nc4nccs4)cc3)n2)cc1C | < 1
19 | O=C(Nc1ccc(Cl)c(S(=O)(=O)N2CCOCC2)c1)c1ccccc1 | < 1
20 | Nc1nc2c(s1)C(c1ccccc1)CC(=O)N2 (stereo not drawn) | 26 (≈ 106 µM)
21 | COc1ccc(-c2nc3sc(CCNC(=O)C(C)(C)C)c(C)n3n2)cc1 | > 55
22 | CCOc1ccc(CCN(C)C(=O)c2cc3sccc3n2Cc2ccccc2)cc1OCC | < 1
23 | O=C(O)c1cccc(-c2cnc3ccccc3c2)c1 | > 37
24 | CCCc1oc2ccc(NS(=O)(=O)c3ccc(OC)cc3)cc2c1C(=O)OCC | < 1

Row | Compound | solubility kinetic [µg/mL]
25 | CC(/C=C/C(=O)NO)=C\[C@@H](C)C(=O)c1ccc(N(C)C)cc1 | > 45
26 | Cc1ccc(S(=O)(=O)Nc2ccccc2C(=O)Nc2nc(-c3ccccc3)c(C)s2)cc1 | < 1
27 | O=C(Nc1ccccc1C(=O)Nc1ccccc1C(=O)NCc1ccco1)c1ccco1 | 4.45 (≈ 10.4 µM)
28 | CCOC(=O)c1ccc(NC(=O)c2sc3nc4c(cc3c2N)N2CCC4CC2)cc1 | < 1
29 | CCOc1ccccc1C(=O)Nc1ncccc1C(=O)Nc1cccc(S(=O)(=O)C(F)(F)F)c1 | < 1
30 | CC[C@H]1CN(C)[C@H]2Cc3c([nH]c4ccccc34)C(=O)C[C@H]1[C@H]2C(=O)OC | > 52
31 | COC(=O)C1=C(C)NC(C)=C(C(=O)OCCCN2CCC(c3ccccc3)(c3ccccc3)CC2)C1c1cccc([N+](=O)[O-])c1.Cl (stereo not drawn) | < 1
32 | Cc1cccc(NCc2ccc(O)c3ncccc23)c1 | < 1
33 | CCCCN(C)C(=O)c1c(C)sc2ccn(CCC)c(=O)c12 | > 32
34 | CCc1ccccc1C(=O)N1CCc2cc(-c3nc(NC(=O)Cc4ccc5c(c4)OCO5)sc3C)ccc21 | < 1
35 | O=c1c(-c2ccc(O)cc2)coc2cc(O)cc(O)c12 | 27.3 (≈ 101 µM)
36 | NC(=O)c1ccc(-c2nc3c([nH]2)CN(C(=O)CN2CCOCC2)CC3)cc1 | > 55
37 | Cc1ccccc1C(=O)N1CCc2cc(N3CCC(NC(=O)Cc4ccccc4)C3)ccc21 (stereo not drawn) | 5.59 (≈ 12.7 µM)
38 | CCC(=O)N1CCN(c2ccc(-n3c(=O)ccc4cnc5ccc(-c6cnc7ccccc7c6)cc5c43)cc2C(F)(F)F)CC1 | < 1
39 | O=C(Nc1ccc(S(=O)(=O)Nc2nccs2)cc1)c1cccnc1 | > 53
40 | Cc1c([C@@H](C)C2NC[C@H](C)C[C@@H]2O)ccc2c1C[C@@H]1[C@H]2CC=C2C[C@@H](O)CC[C@@]21C (stereo partly drawn) | 40.9 (≈ 99.7 µM)
41 | CN(C(=O)OC(C)(C)C)[C@@H](Cc1ccc(O[S+](=O)([O-])c2cccc3cnccc23)cc1)C(=O)N1CCN(C(=O)OCc2ccccc2)CC1 | < 1
42 | CCN(CC)C(=O)c1ccc(O)c(OC)c1 | 27.3 (≈ 122 µM)
43 | FC(F)(F)c1cc(-c2ccc(CNc3nc(-c4ccccc4C(F)(F)F)nc4ccsc34)cc2)ccn1 | < 1
44 | CC(=O)NCCNC[C@@H]1C=C(C)[C@H](Cc2nnc(-c3ccccc3)o2)C[C@H]1C(C)C | > 61
45 | COc1cccc(CNc2ccc(S(=O)(=O)Nc3cccc4ccncc34)cc2)c1O | < 1
46 | COC(=O)c1c(NC(=O)Cc2coc3cc(C)ccc23)sc2c1CCC2 | < 1
47 | Cc1ccc2[nH]c(-c3ccccc3)cc(=O)c2c1 | 3.41 (≈ 14.5 µM)

The next lines start with the values.

Row | solubility kinetic [µg/mL] | Compound
48 | 51.7 (≈ 102 µM) | CN(c1ncccc1CNc1nc(Nc2ccc3c(c2)CC(=O)N3)ncc1C(F)(F)F)S(C)(=O)=O
49 | 0.226 (≈ 0.596 µM) | Fc1ccc(-c2csc3ncnc(NCc4ccc5c(c4)OCO5)c23)cc1
50 | > 69 | CCn1nc(C2CCN(C(=O)CCO)CC2)nc1-c1cnc(N)c(-c2nnc(C(C)(C)C)o2)n1
51 | < 1 | Cc1cccc2nc(-c3cccnc3)c(Nc3ccc(C(C)C)cc3)n12
52 | < 1 | Fc1cnc(-c2ccccc2C(F)F)nc1NCc1ccc(-n2ccnn2)cc1
53 | < 1 | Cc1ccc(S(=O)(=O)Nc2ccccc2C(=O)Nc2cnc(-c3ccccc3)cn2)cc1
54 | > 72 | Cc1c(Cl)cccc1-n1ncc(C(=O)Nc2ccc(Br)cc2F)c1C1CCNCC1
55 | 6.19 (≈ 13.8 µM) | Cc1ccccc1C(=O)N1CCc2cc(-c3ccnc(NC(=O)Cc4ccccc4)n3)ccc21
56 | > 48 | Clc1ccc2ncc(-c3cccc(NC4CCNCC4)n3)n2c1
57 | 36.3 (≈ 97.2 µM) | Cc1cnc(-c2ccccc2C(C)C)nc1NCC1CN(c2cccnc2)C1
58 | 8.45 (≈ 20.2 µM) | CCOC(=O)CCNc1cc(N2CCc3ccccc3CC2)nc(-c2ccccn2)n1
59 | 58.4 (≈ 125 µM) | COc1cccc(CNc2ccc(S(=O)(=O)Nc3ccc(C4CCNCC4)cc3)cc2)c1O
60 | < 1 | Cc1ccccc1C(=O)N1CCc2cc(-c3nc(NC(=O)CC4CCCCC4)sc3C)ccc21
61 | > 64 | CN(C)C(=O)c1cc2cnc(Nc3ccc(N4CCNCC4)cn3)nc2n1C1CCCC1
62 | 49.9 (≈ 139 µM) | COc1cccc(CN2CCNc3cc(Nc4ccccc4)ncc3C2)c1
63 | 10.8 (≈ 32 µM) | O=C(Nc1cccc(OC(F)(F)F)c1)c1cc(-c2ccc[nH]2)n[nH]1
64 | 2.19 (≈ 5.17 µM) | COC(=O)c1ccnc(NC(=S)N2CCN(c3cccc(C(F)(F)F)c3)CC2)c1
65 | < 1 | CC1=C(C(=O)Nc2nnc(-c3ccccc3)s2)C(c2[nH]ncc2Cl)N=C(Nc2nc3ccccc3o2)N1 (stereo not drawn)
66 | 5.39 (≈ 14.9 µM) | NC(=O)C1CCN(c2nccc(-c3ccc(Br)cc3)n2)CC1
67 | > 61 | Cc1cnc(-c2ccccc2C2COC2)nc1NCC1CCN(c2cccnc2)CC1
68 | > 74 | O=C1CCC(CNC(=O)c2nc(-c3ccccc3)cc3[nH]ccc23)N1 (stereo not drawn)
69 | < 1 | COc1ccc(-c2nc3ccccc3s2)cc1NC(=O)c1ccc(F)cc1
70 | 5.59 (≈ 15.5 µM) | Cc1cccc(-n2cnc3cc(C(=O)N4CCCC(C(C)C)C4)ccc32)c1 (stereo not drawn)
71 | 4.09 (≈ 10.7 µM) | c1c[nH]c(C2CCN(c3ncc(-c4ccc5c(c4)OCCCO5)s3)CC2)n1
72 | 5.33 (≈ 15.3 µM) | COc1ccc(-c2ccc3ncc(Nc4cccnc4OC)n3n2)cn1
73 | 10.1 (≈ 22.8 µM) | COc1ncccc1-c1cc2c(ccn2C(C)C)c(C(=O)NCc2c(C)cc(C)[nH]c2=O)n1

Row | solubility kinetic [µg/mL] | Compound
74 | < 1 | Cc1ccc(-c2cc(C(=O)NC3CCCCC3)c3ccccc3n2)cc1
75 | < 1 | CCNC(=O)Nc1ncc(-c2cc(-c3c(C)cc(OC)cc3C)nc(-c3cnccn3)n2)s1
76 | 1.07 (≈ 2.63 µM) | Cc1sc(NC(=O)Cc2ccc3c(c2)OCO3)nc1-c1ccc2c(c1)CCN2C
77 | 2.48 (≈ 5.43 µM) | O=C(NCc1ccccc1)C1CCN(c2nc(-c3ccc(Br)cc3)cs2)CC1
78 | > 45 | Cn1cnc2c(F)c(Nc3ccc(Br)cc3Cl)c(C(=O)NOCCO)cc21
79 | 45.3 (≈ 117 µM) | Cc1cccc(-n2cnc3cc(C(=O)N4CCCC(C(F)(F)F)C4)ccc32)c1 (stereo not drawn)
80 | 19.3 (≈ 50.3 µM) | C[C@H]1CN(C(=O)Nc2ccc(F)cc2F)C[C@@H]1c1nc(-c2ccccc2)no1
81 | 15.2 (≈ 37.1 µM) | COc1cccc(-n2nc(C(=O)O)cc2-c2ccc(C3CCCCC3)c(Cl)c2)c1
82 | < 1 | Cc1noc(C)c1-c1ccc2ncnc(NCc3cccc(Cl)c3)c2c1
83 | > 54 | COc1cnccc1-c1nc(Nc2ccc(F)c(F)c2)c2ccccc2n1
84 | < 1 | c1ccc2c(NC3CCCCC3)nc(-c3ccncc3)nc2c1
85 | 17.9 (≈ 58 µM) | C[C@@]1(c2ncncc2F)NC(=O)c2cc(-c3cn[nH]c3)ccc21
86 | < 1 | Cc1nn(-c2ccccc2)c2nc(C3CC3)cc(C(=O)Nc3ccc(F)cc3)c12
87 | < 1 | CCS(=O)(=O)c1cccc(C(=O)Nc2ccc(-c3nc4ccccc4s3)c(O)c2)c1
88 | 31.1 (≈ 67.4 µM) | C[C@@]1(C(=O)Nc2ccc(F)nc2)CCCN1c1nc(Nc2cc(C3CC3)[nH]n2)c2cccn2n1
89 | < 1 | Cc1cccc(N2CCN(c3nc4ccccc4c4nnc(C)n34)CC2)c1C
90 | < 1 | CCCCOc1ccc(C(=O)N2CCC(c3n[nH]c(=O)n3-c3ccc(C)cc3)CC2)cc1
91 | < 1 | Cc1cc(N)c2cc(NC(=O)Nc3ccc4nc(C)cc(N)c4c3)ccc2n1.Cl.Cl
92 | 4.03 (≈ 8.68 µM) | Cc1cnc(SCc2ccccn2)nc1C1CCCN(C(=O)c2scc3c2CCCC3)C1 (stereo not drawn)
93 | 30.6 (≈ 82.8 µM) | c1ccc(Nc2cc3c(cn2)CN(Cc2ccc4[nH]ccc4c2)CCN3)cc1
94 | 19.8 (≈ 47.7 µM) | Cc1ccc(N2CCC(CNc3nc(-c4ccccc4C(C)C)ncc3C)CC2)cn1
95 | 36.1 (≈ 123 µM) | COc1ccc(CNC(=O)c2cnc3ccccc3n2)cc1
96 | 1.83 (≈ 4.39 µM) | O=C1CCCC2=C1C(c1[nH]ncc1Cl)N=C(Nc1nc3c(Cl)cccc3o1)N2 (stereo not drawn)
97 | 26.2 (≈ 69.2 µM) | O=C(Nc1cccc(C(F)(F)F)c1)C1=CCN(Cc2ccc(F)cc2)CC1
98 | < 1 | CC(C)c1ccc(OCc2nc3c(n2Cc2ccccc2)C(=O)N(CC2CCOCC2)CCN3)cc1
